Columns and labels:
Hepatitis C virus = assay: Antiviral activity against Hepatitis C virus isolate con1 1b infected in human hepatoma cells replicon cells after 3 days by RT-PCR analysis; assay type: functional, organism-based, Hepacivirus hominis, genotype 1b Con1; settings: Hepatitis C virus, genotype 1b Con1, 72 h
[1] = Cytotoxicity against human hepatoma cells assessed as decrease in RNA level after 3 days by RT-PCR analysis; assay type: cell-based; settings: human hepatoma cells
[2] = Cytotoxicity against human hepatoma cells after 3 days by MTS assay; assay type: cell-based; settings: human hepatoma cells
Liver = assay: Drug uptake in rat liver per mg tissue at 10 mg/kg, po after 6 hrs; assay type: ADME, organism-based; design: dose 10 mg/kg, route oral; settings: in vivo
[3] = AUC (0 to 6 hrs) in rat at 10 mg/kg, po; assay type: ADME, organism-based; design: time < 6 hr, dose 10 mg/kg, route oral; settings: plasma

Row | Structure (SMILES) | EC50 (Hepatitis C virus) | CC50 at 72 h [1] | CC50 at 72 h [2] | Drug uptake (Liver) | AUC(0-t) at 6 h [3]
1 | Nc1nc(Cl)c(-c2cc3ccccc3s2)c(N[C@@H]2C[C@H](CO)[C@@H](O)[C@H]2O)n1 | > 25 µM | > 25 µM | – | – | –
2 | COc1ccc2nc(-c3c(Cl)nc(N)nc3N[C@@H]3C[C@H](CO)[C@@H](O)[C@H]3O)sc2c1 | 0.045 µM | > 25 µM | > 25 µM | – | –
3 | Nc1nc(Cl)c(-c2cnccn2)c(N[C@@H]2C[C@H](CO)[C@@H](O)[C@H]2O)n1 | > 25 µM | – | > 25 µM | – | –
4 | CCc1nc(N(C)C)nc(N[C@@H]2C[C@H](CO)[C@@H](O)[C@H]2O)c1-c1nc2ccccc2s1 | 13 µM | > 25 µM | > 25 µM | – | –
5 | Nc1ncc(-c2nc3ccccc3s2)c(N[C@@H]2C[C@H](CO)[C@@H](O)[C@H]2O)n1 | 0.2 µM | > 25 µM | > 25 µM | 250 ng/g | 0.4 µM·h
6 | Nc1nc(Cl)c(-c2nccs2)c(N[C@@H]2C[C@H](CO)[C@@H](O)[C@H]2O)n1 | 3 µM | > 25 µM | > 25 µM | – | –
7 | Cc1nc(NCc2cccs2)nc(N[C@@H]2C[C@H](CO)[C@@H](O)[C@H]2O)c1-c1nc2ccccc2s1 | 0.006 µM | 6 µM | 5 µM | 180 ng/g | 0.5 µM·h
8 | OC[C@H]1C[C@@H](Nc2nc(NCC(F)(F)F)nc(C3CC3)c2-c2nc3ccccc3s2)[C@H](O)[C@@H]1O | 0.7 µM | > 25 µM | > 25 µM | 12800 ng/g | 12.8 µM·h
9 | Cc1nc(NCCOC(C)C)nc(N[C@@H]2C[C@H](CO)[C@@H](O)[C@H]2O)c1-c1nc2ccccc2s1 | 0.02 µM | 8 µM | 7 µM | 130 ng/g | 0.9 µM·h
10 | Nc1nc(Cl)c(-c2ccccc2)c(N[C@@H]2C[C@H](CO)[C@@H](O)[C@H]2O)n1 | > 25 µM | – | > 25 µM | – | –
11 | Cc1nc(N[C@H](C)C(F)(F)F)nc(N[C@@H]2C[C@H](CO)[C@@H](O)[C@H]2O)c1-c1nc2ccccc2s1 | 0.1 µM | 21 µM | 19 µM | – | –
12 | CNc1nc(C)c(-c2nc3ccccc3s2)c(N[C@@H]2C[C@H](CO)[C@@H](O)[C@H]2O)n1 | 0.05 µM | > 25 µM | > 25 µM | 75 ng/g | 2.7 µM·h
13 | Nc1nc(Cl)c(-c2nc3ccccc3o2)c(N[C@@H]2C[C@H](CO)[C@@H](O)[C@H]2O)n1 | 0.05 µM | 12 µM | 15 µM | – | –
14 | Cc1nc(NCc2cccnc2)nc(N[C@@H]2C[C@H](CO)[C@@H](O)[C@H]2O)c1-c1nc2ccccc2s1 | 0.015 µM | 5 µM | 11 µM | 10 ng/g | 0.02 µM·h
15 | Cc1nc(NC(C)(C)C)nc(N[C@@H]2C[C@H](CO)[C@@H](O)[C@H]2O)c1-c1nc2ccccc2s1 | 0.09 µM | 12 µM | 13 µM | 1240 ng/g | 5 µM·h
16 | CN(C)c1ccc2sc(-c3c(Cl)nc(N)nc3N[C@@H]3C[C@H](CO)[C@@H](O)[C@H]3O)nc2c1 | 0.035 µM | 25 µM | 21 µM | – | –
17 | Cc1nc(Nc2nccs2)nc(N[C@@H]2C[C@H](CO)[C@@H](O)[C@H]2O)c1-c1nc2ccccc2s1 | 0.77 µM | 15 µM | 13 µM | – | –
18 | Cc1nc(NCc2ccccn2)nc(N[C@@H]2C[C@H](CO)[C@@H](O)[C@H]2O)c1-c1nc2ccccc2s1 | 0.03 µM | 13 µM | 18 µM | 125 ng/g | 3.4 µM·h
19 | Nc1nc(Cl)c(-c2ccccn2)c(N[C@@H]2C[C@H](CO)[C@@H](O)[C@H]2O)n1 | > 25 µM | > 25 µM | > 25 µM | – | –
20 | CCOC(=O)NCCNc1nc(C)c(-c2nc3ccccc3s2)c(N[C@@H]2C[C@H](CO)[C@@H](O)[C@H]2O)n1 | 0.04 µM | 12 µM | 19 µM | 63 ng/g | 0.3 µM·h
21 | Cc1nc(NCCNC(=O)NC(C)(C)C)nc(N[C@@H]2C[C@H](CO)[C@@H](O)[C@H]2O)c1-c1nc2ccccc2s1 | 0.9 µM | > 25 µM | > 25 µM | – | –
22 | Cc1nc(NCC(C)C)nc(N[C@@H]2C[C@H](CO)[C@@H](O)[C@H]2O)c1-c1nc2ccccc2s1 | 0.06 µM | 10 µM | 10 µM | 510 ng/g | 2.3 µM·h
23 | Nc1nc(Cl)c(-c2nc3ccc(Cl)cc3s2)c(N[C@@H]2C[C@H](CO)[C@@H](O)[C@H]2O)n1 | 0.65 µM | 16 µM | > 25 µM | – | –
24 | COCCNc1nc(C)c(-c2nc3ccccc3s2)c(N[C@@H]2C[C@H](CO)[C@@H](O)[C@H]2O)n1 | 0.035 µM | 21 µM | 15 µM | 875 ng/g | 5.9 µM·h
25 | Nc1nc(Cl)c(-c2cc3ccccc3[nH]2)c(N[C@@H]2C[C@H](CO)[C@@H](O)[C@H]2O)n1 | 7 µM | – | 25 µM | – | –

Row | Structure (SMILES) | EC50 (Hepatitis C virus) | CC50 at 72 h [1] | CC50 at 72 h [2] | Drug uptake (Liver) | AUC(0-t) at 6 h [3]
26 | Cc1nc(NCC2CC2)nc(N[C@@H]2C[C@H](CO)[C@@H](O)[C@H]2O)c1-c1nc2ccccc2s1 | 0.05 µM | 8 µM | 8 µM | 405 ng/g | 3.2 µM·h
27 | Cc1nc(Nc2ncco2)nc(N[C@@H]2C[C@H](CO)[C@@H](O)[C@H]2O)c1-c1nc2ccccc2s1 | 4.5 µM | > 25 µM | > 25 µM | – | –
28 | Cc1nc(NCCC(F)(F)F)nc(N[C@@H]2C[C@H](CO)[C@@H](O)[C@H]2O)c1-c1nc2ccccc2s1 | 0.03 µM | 9 µM | 9 µM | 1080 ng/g | 5.3 µM·h
29 | Cc1nc(NCc2ccsc2)nc(N[C@@H]2C[C@H](CO)[C@@H](O)[C@H]2O)c1-c1nc2ccccc2s1 | 0.015 µM | 6 µM | 4 µM | 75 ng/g | 0.2 µM·h
30 | Nc1nc(Cl)c(-c2ncco2)c(N[C@@H]2C[C@H](CO)[C@@H](O)[C@H]2O)n1 | > 25 µM | > 25 µM | > 25 µM | – | –
31 | CCOCCNc1nc(C)c(-c2nc3ccccc3s2)c(N[C@@H]2C[C@H](CO)[C@@H](O)[C@H]2O)n1 | 0.035 µM | 18 µM | 18 µM | 400 ng/g | 2.4 µM·h
32 | Cc1nc(NC(C)C)nc(N[C@@H]2C[C@H](CO)[C@@H](O)[C@H]2O)c1-c1nc2ccccc2s1 | 0.16 µM | 13 µM | 14 µM | 3320 ng/g | 19.6 µM·h
33 | CCOc1ccc2nc(-c3c(Cl)nc(N)nc3N[C@@H]3C[C@H](CO)[C@@H](O)[C@H]3O)sc2c1 | 0.03 µM | > 25 µM | 25 µM | – | –
34 | Cc1nc(NCc2nccs2)nc(N[C@@H]2C[C@H](CO)[C@@H](O)[C@H]2O)c1-c1nc2ccccc2s1 | 0.03 µM | 23 µM | 21 µM | 150 ng/g | 0.5 µM·h
35 | Cc1nc(NCCNS(C)(=O)=O)nc(N[C@@H]2C[C@H](CO)[C@@H](O)[C@H]2O)c1-c1nc2ccccc2s1 | 0.26 µM | > 25 µM | > 25 µM | – | –
36 | Cc1nc(NCc2ccccc2)nc(N[C@@H]2C[C@H](CO)[C@@H](O)[C@H]2O)c1-c1nc2ccccc2s1 | 0.03 µM | 9 µM | 7 µM | 430 ng/g | 2.2 µM·h
37 | Nc1nc(Cl)c(-c2cc3ccccc3o2)c(N[C@@H]2C[C@H](CO)[C@@H](O)[C@H]2O)n1 | 0.3 µM | – | > 25 µM | – | –
38 | CCNc1nc(C)c(-c2nc3ccccc3s2)c(N[C@@H]2C[C@H](CO)[C@@H](O)[C@H]2O)n1 | 0.1 µM | 12 µM | > 25 µM | 515 ng/g | 6.2 µM·h
39 | Nc1nc(Cl)c(-c2ccco2)c(N[C@@H]2C[C@H](CO)[C@@H](O)[C@H]2O)n1 | 4 µM | > 25 µM | > 25 µM | – | –
40 | CNc1ccc2sc(-c3c(Cl)nc(N)nc3N[C@@H]3C[C@H](CO)[C@@H](O)[C@H]3O)nc2c1 | 0.02 µM | 20 µM | 14 µM | – | –
41 | CN(C)c1ccc2nc(-c3c(Cl)nc(N)nc3N[C@@H]3C[C@H](CO)[C@@H](O)[C@H]3O)sc2c1 | 1 µM | > 25 µM | > 25 µM | – | –
42 | Nc1nc(Cl)c(-c2cccs2)c(N[C@@H]2C[C@H](CO)[C@@H](O)[C@H]2O)n1 | > 25 µM | > 25 µM | – | – | –
43 | Nc1nc(Cl)c(-c2nc3ccc(F)cc3s2)c(N[C@@H]2C[C@H](CO)[C@@H](O)[C@H]2O)n1 | 0.18 µM | > 25 µM | > 25 µM | – | –
44 | Cc1nc(N)nc(N[C@@H]2C[C@H](CO)[C@@H](O)[C@H]2O)c1-c1nc2ccccc2s1 | 0.13 µM | 4 µM | 25 µM | – | 4.7 µM·h
45 | Cc1nc(NCC2CCC2)nc(N[C@@H]2C[C@H](CO)[C@@H](O)[C@H]2O)c1-c1nc2ccccc2s1 | 0.25 µM | > 25 µM | > 25 µM | 150 ng/g | 0.5 µM·h
46 | CCCNc1nc(C)c(-c2nc3ccccc3s2)c(N[C@@H]2C[C@H](CO)[C@@H](O)[C@H]2O)n1 | 0.31 µM | > 25 µM | > 25 µM | – | –
47 | Nc1nc(Cl)c(-c2nc3ccccc3s2)c(N[C@@H]2C[C@H](CO)[C@@H](O)[C@H]2O)n1 | 0.02 µM | 14 µM | 18 µM | – | 0.08 µM·h
48 | CNc1ccc2nc(-c3c(Cl)nc(N)nc3N[C@@H]3C[C@H](CO)[C@@H](O)[C@H]3O)sc2c1 | 0.05 µM | 6 µM | 16 µM | – | –
49 | Cc1nc(Nc2ccncc2)nc(N[C@@H]2C[C@H](CO)[C@@H](O)[C@H]2O)c1-c1nc2ccccc2s1 | 0.33 µM | 7 µM | 7 µM | – | –
